Results reported in patent US8993542B2, “Methods of treating viral infections” (priority 2008, dated 2015).

Tested on: HIV-1IIIB
Test: Two-drug combination antiviral assay in CEM cells (CPE), MacSynergy II
Format: cell-based
Conditions: for Antagonism Volume, Result 1 / Antagonism Volume, Result 2 / Antagonism Volume, Result 3 / Mean Antagonism Volume (n = 3) / Mean Synergy Volume (n = 3) / Synergy Volume, Result 1 / Synergy Volume, Result 2 / Synergy Volume, Result 3: in combination with CMX157, CEM-SS cells, 95% confidence; for Interpretation of Antiviral Results (MacSynergy): two-drug combination (with CMX157; control d4T/RBV), CEM-SS cells

## Cc1cccc(C)c1OCC(=O)N[C@@H](Cc1ccccc1)[C@@H](O)C[C@H](Cc1ccccc1)NC(=O)[C@H](C(C)C)N1CCCNC1=O [Lopinavir (LPV), lopinavir]
  Antagonism Volume, Result 1: −0.31 nM^2 %, μM^2 % or nMμM %
  Antagonism Volume, Result 2: 0 nM^2 %, μM^2 % or nMμM %
  Antagonism Volume, Result 3: −0.12 nM^2 %, μM^2 % or nMμM %
  Mean Antagonism Volume (n = 3): −0.14 nM^2 %, μM^2 % or nMμM %
  Mean Synergy Volume (n = 3): 55.6 nM^2 %, μM^2 % or nMμM %
  Synergy Volume, Result 1: 78.8 nM^2 %, μM^2 % or nMμM %
  Synergy Volume, Result 2: 28.3 nM^2 %, μM^2 % or nMμM %
  Synergy Volume, Result 3: 59.8 nM^2 %, μM^2 % or nMμM %
  Interpretation of Antiviral Results (MacSynergy): slightly synergistic

## Cc1c(O)cccc1C(=O)N[C@@H](CSc1ccccc1)[C@H](O)CN1C[C@H]2CCCC[C@H]2C[C@H]1C(=O)NC(C)(C)C [Nelfinavir (NFV), nelfinavir]
  Antagonism Volume, Result 1: 0 nM^2 %, μM^2 % or nMμM %
  Antagonism Volume, Result 2: 0 nM^2 %, μM^2 % or nMμM %
  Antagonism Volume, Result 3: 0 nM^2 %, μM^2 % or nMμM %
  Mean Antagonism Volume (n = 3): 0 nM^2 %, μM^2 % or nMμM %
  Mean Synergy Volume (n = 3): 80.9 nM^2 %, μM^2 % or nMμM %
  Synergy Volume, Result 1: 32.1 nM^2 %, μM^2 % or nMμM %
  Synergy Volume, Result 2: 85.1 nM^2 %, μM^2 % or nMμM %
  Synergy Volume, Result 3: 125 nM^2 %, μM^2 % or nMμM %
  Interpretation of Antiviral Results (MacSynergy): slightly synergistic

## Cc1ccnc2c1NC(=O)c1cccnc1N2C1CC1 [Nevirapine (NVP), nevirapine]
  Antagonism Volume, Result 1: 0 nM^2 %, μM^2 % or nMμM %
  Antagonism Volume, Result 2: 0 nM^2 %, μM^2 % or nMμM %
  Antagonism Volume, Result 3: 0/0 nM^2 %, μM^2 % or nMμM %
  Mean Antagonism Volume (n = 3): 0 nM^2 %, μM^2 % or nMμM %
  Mean Synergy Volume (n = 3): 38.5 nM^2 %, μM^2 % or nMμM %
  Synergy Volume, Result 1: 74.1 nM^2 %, μM^2 % or nMμM %
  Synergy Volume, Result 2: 41.5 nM^2 %, μM^2 % or nMμM %
  Synergy Volume, Result 3: 0/0 nM^2 %, μM^2 % or nMμM %

## Cc1nnc(C(=O)NC(C)(C)c2nc(C(=O)NCc3ccc(F)cc3)c(O)c(=O)n2C)o1 [Raltegravir (RAL), raltegravir]
  Antagonism Volume, Result 1: 0 nM^2 %, μM^2 % or nMμM %
  Antagonism Volume, Result 2: 0 nM^2 %, μM^2 % or nMμM %
  Antagonism Volume, Result 3: 0 nM^2 %, μM^2 % or nMμM %
  Mean Antagonism Volume (n = 3): 0 nM^2 %, μM^2 % or nMμM %
  Mean Synergy Volume (n = 3): 34.3 nM^2 %, μM^2 % or nMμM %
  Synergy Volume, Result 1: 18.4 nM^2 %, μM^2 % or nMμM %
  Synergy Volume, Result 2: 1.92 nM^2 %, μM^2 % or nMμM %
  Synergy Volume, Result 3: 82.6 nM^2 %, μM^2 % or nMμM %

## CC(C)c1nc(CN(C)C(=O)N[C@H](C(=O)N[C@@H](Cc2ccccc2)C[C@H](O)[C@H](Cc2ccccc2)NC(=O)OCc2cncs2)C(C)C)cs1 [Ritonavir (RTV), ritonavir]
  Antagonism Volume, Result 1: 0 nM^2 %, μM^2 % or nMμM %
  Antagonism Volume, Result 2: 0 nM^2 %, μM^2 % or nMμM %
  Antagonism Volume, Result 3: −2.61 nM^2 %, μM^2 % or nMμM %
  Mean Antagonism Volume (n = 3): 0 nM^2 %, μM^2 % or nMμM %
  Mean Synergy Volume (n = 3): 66.4 nM^2 %, μM^2 % or nMμM %
  Synergy Volume, Result 1: 47.5 nM^2 %, μM^2 % or nMμM %
  Synergy Volume, Result 2: 38.0 nM^2 %, μM^2 % or nMμM %
  Synergy Volume, Result 3: 116 nM^2 %, μM^2 % or nMμM %
  Interpretation of Antiviral Results (MacSynergy): slightly synergistic

## CC(C)(C)NC(=O)[C@@H]1C[C@@H]2CCCC[C@@H]2CN1C[C@@H](O)[C@H](Cc1ccccc1)NC(=O)[C@H](CC(N)=O)NC(=O)c1ccc2ccccc2n1 [Saquinavir (SQV), saquinavir]
  Antagonism Volume, Result 1: −2.54 nM^2 %, μM^2 % or nMμM %
  Antagonism Volume, Result 2: −0.81 nM^2 %, μM^2 % or nMμM %
  Antagonism Volume, Result 3: 0 nM^2 %, μM^2 % or nMμM %
  Mean Antagonism Volume (n = 3): −1.12 nM^2 %, μM^2 % or nMμM %
  Mean Synergy Volume (n = 3): 45.2 nM^2 %, μM^2 % or nMμM %
  Synergy Volume, Result 1: 123 nM^2 %, μM^2 % or nMμM %
  Synergy Volume, Result 2: 8.35 nM^2 %, μM^2 % or nMμM %
  Synergy Volume, Result 3: 3.93 nM^2 %, μM^2 % or nMμM %

## CCC[C@@]1(CCc2ccccc2)CC(O)=C([C@H](CC)c2cccc(NS(=O)(=O)c3ccc(C(F)(F)F)cn3)c2)C(=O)O1 [Tipranavir (TPV), tipranavir]
  Antagonism Volume, Result 1: 0 nM^2 %, μM^2 % or nMμM %
  Antagonism Volume, Result 2: −8.60 nM^2 %, μM^2 % or nMμM %
  Antagonism Volume, Result 3: 0 nM^2 %, μM^2 % or nMμM %
  Mean Antagonism Volume (n = 3): −2.87 nM^2 %, μM^2 % or nMμM %
  Mean Synergy Volume (n = 3): 52.2 nM^2 %, μM^2 % or nMμM %
  Synergy Volume, Result 1: 110 nM^2 %, μM^2 % or nMμM %
  Synergy Volume, Result 2: 29.4 nM^2 %, μM^2 % or nMμM %
  Synergy Volume, Result 3: 16.8 nM^2 %, μM^2 % or nMμM %

## Nc1ccn([C@H]2CC[C@@H](CO)O2)c(=O)n1 [Zalcitabine (ddC), 2′,3′-dideoxycytidine]
  Antagonism Volume, Result 1: 0 nM^2 %, μM^2 % or nMμM %
  Antagonism Volume, Result 2: 0 nM^2 %, μM^2 % or nMμM %
  Antagonism Volume, Result 3: −15.9 nM^2 %, μM^2 % or nMμM %
  Mean Antagonism Volume (n = 3): −5.29 nM^2 %, μM^2 % or nMμM %
  Mean Synergy Volume (n = 3): 122 nM^2 %, μM^2 % or nMμM %
  Synergy Volume, Result 1: 154 nM^2 %, μM^2 % or nMμM %
  Synergy Volume, Result 2: 80.0 nM^2 %, μM^2 % or nMμM %
  Synergy Volume, Result 3: 131 nM^2 %, μM^2 % or nMμM %
  Interpretation of Antiviral Results (MacSynergy): highly synergistic

## enfuvirtide
  Antagonism Volume, Result 1: 0/0 nM^2 %, μM^2 % or nMμM %
  Antagonism Volume, Result 2: 0 nM^2 %, μM^2 % or nMμM %
  Antagonism Volume, Result 3: 0/0 nM^2 %, μM^2 % or nMμM %
  Mean Antagonism Volume (n = 3): 0 nM^2 %, μM^2 % or nMμM %
  Mean Synergy Volume (n = 3): 1.02 nM^2 %, μM^2 % or nMμM %
  Synergy Volume, Result 1: 0/0 nM^2 %, μM^2 % or nMμM %
  Synergy Volume, Result 2: 3.05 nM^2 %, μM^2 % or nMμM %
  Synergy Volume, Result 3: 0/0 nM^2 %, μM^2 % or nMμM %
